“Also recorded” adds a separate entry of the source.
How the values were obtained:
[1] = tested on: Aβ-induced impairment of hippocampal LTP; experiment: HFS-induced LTP (fEPSP slope) in acute hippocampal slices treated with Aβ; type: cell-based, mouse
Method: Oligomeric Aβ (Aβ) was prepared as described previously^59,60. Briefly, 0.5 mg monomeric Aβ1-42 was dissolved in 22.2 μL dry DMSO and then diluted in ice-cold phenol-red free F-12 medium to yield a final Aβ concentration of 100 μM. The Aβ solution was incubated at 4° C. for 24 h and then centrifuged at 14,000×g for 10 min. The supernatant was frozen in liquid nitrogen and stored at −20° C. for up to 1 month. Unless specified, cultured neurons or hippocampal slices were typically treated with Aβ at 500 nM.
For LTP recordings, mouse brains were immediately dissected after sacrifice and soaked in ice-cold 95% O2/5% CO2 (aCSF)^58. Brain slices (300 μm thick) were prepared using a vibrating tissue slicer (HM650V; Thermo), and soaked in oxygenated buffer for 2 h at 32° C. The hippocampal regions were resected and placed at the center of a MED-P210A probe (Panasonic International Inc) with 64 embedded recording electrodes. The slices were then perfused with Aβ at 500 nM in oxygenated aCSF for 2 h before LTP induction^70. For treatment with EphA4 inhibitors, the slices were pretreated with peptides or chemicals for 1 h before application of Aβ. fEPSPs were recorded using a MED64 multichannel recording system, and the data were collected from the dendritic layer of area CA1 at a sampling rate of 10 kHz. For each slice, the baseline stimulus intensity was set at the level that elicited ˜50% of the maximum fEPSP response determined according to the input-output curve. LTP was induced by 3 trains of HFS (100 Hz, 1 s, delivered 30 s apart). The magnitude of LTP was quantified as a percentage change in the fEPSP slope (10%-90%) taken during the 60-min interval after LTP induction.

EphA4 = molecular target: T1, EphA4 (Rattus norvegicus, UniProt D3ZZK3); experiment: ephrin-A1-induced EphA4 tyrosine phosphorylation in cortical neurons (immunoprecipitation, western blot); type: cell-based; settings: cortical neurons pretreated with compound, then ephrin-A1; western blot for P-Tyr
T1 construct: endogenous in cells; host or cells: primary rat cortical neurons (A5), primary rat hippocampal neurons (A7)
Method: Primary cortical and hippocampal neurons were prepared from embryonic day 18-19 rat embryos as described previously^24. Briefly, cortical neurons (6×10^6 per plate) were plated on 100-mm culture dishes coated with poly-D-lysine (12.5 μg/mL; Sigma). Rat hippocampal neurons were seeded on 18-mm coverslips coated with poly-D-lysine (50 μg/mL) at a density of 0.5×10^5/18-mm coverslip for immunocytochemical analysis, 0.1×10^5/18-mm coverslip for growth cone collapse assay, or 1×10^5 or 1.5×10^5/18-mm coverslip for mEPSC recording. Neurons were fed Neurobasal medium (Invitrogen) supplemented with 2% B27 (Invitrogen). Acute brain slices were prepared from P15-P17 Sprague-Dawley rats. Briefly, the rats were rapidly decapitated, and their brains were immersed in ice-cold artificial cerebrospinal fluid (ACSF). The hippocampus was dissected, and 300-μm-thick slices were prepared using a vibratome (Lieca). The slices were then transferred into an incubating chamber containing circulating ACSF equilibrated with 95% O2+5% CO2 and held at room temperature for at least 2 h for recovery prior to experiments^65.
For the immunoprecipitation assay, lysates were immunoprecipitated with the corresponding antibody for 2 h at 4° C. followed by incubation with protein G Sepharose for 1 h at 4° C.^24. […] EphA4 tyrosine phosphorylation was detected by western blot analysis using 4G10 antibody. […]

[2] = molecular target: T2, extracellular domain of EphA4 (Homo sapiens, UniProt P54764); experiment: In vitro pull-down of recombinant EphA4-Fc with biotinylated Rhy on streptavidin beads; type: binding; settings: western blot
T2 construct: purchased R&D Systems
Method: (§1) For the pull-down analysis, Bio-Rhy was bound to streptavidin magnetic beads for 1 h, the beads was then incubated with recombinant EphA4-Fc or EphB2-Fc in the presence of 0.5% BSA for 1 h. After incubation, the beads were washed 4 times with DPBS and the presence of Eph in the complex was determined by western blot analysis.

[3] = molecular target: T3, extracellular domain of EphB2 (Homo sapiens, UniProt P29323); experiment: In vitro pull-down of recombinant EphB2-Fc with biotinylated Rhy on streptavidin beads; type: binding; settings: western blot
T3 construct: purchased R&D Systems
T3 sequence (P29323 19-543 limits assumed): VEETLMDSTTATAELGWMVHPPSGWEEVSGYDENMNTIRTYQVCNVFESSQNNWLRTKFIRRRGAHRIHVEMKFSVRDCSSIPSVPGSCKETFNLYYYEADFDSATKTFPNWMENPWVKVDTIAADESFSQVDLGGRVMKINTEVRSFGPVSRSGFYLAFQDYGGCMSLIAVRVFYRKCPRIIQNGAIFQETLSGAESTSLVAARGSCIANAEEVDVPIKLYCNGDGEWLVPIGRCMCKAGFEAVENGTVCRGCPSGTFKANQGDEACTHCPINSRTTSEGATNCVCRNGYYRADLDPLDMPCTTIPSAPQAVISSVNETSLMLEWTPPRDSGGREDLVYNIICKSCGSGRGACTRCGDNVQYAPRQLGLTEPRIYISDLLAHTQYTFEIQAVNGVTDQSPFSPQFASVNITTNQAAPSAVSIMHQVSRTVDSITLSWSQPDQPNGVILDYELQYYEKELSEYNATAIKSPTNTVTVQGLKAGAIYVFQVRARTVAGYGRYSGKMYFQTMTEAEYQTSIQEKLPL
Method: as §1

[4] = tested on: EphA4-dependent growth cone collapse in hippocampal neurons; experiment: EphA4-dependent (ephrin-A1-stimulated) growth cone collapse assay; type: cell-based, rat; settings: cultured hippocampal neurons
Method: Ephrin-A1-Fc was pre-clustered with goat anti-human Fc antibody (1:4.5)^24 and incubated at room temperature for 60 min before use. The growth cone collapse assay was performed in hippocampal neurons with ephrin-A1 0.1 μg/mL as described previously^61.
For EphA4 clustering, neurons were stained with anti-EphA4 and anti-Tau-1 antibodies. For the growth cone collapse assay, neurons were stained with Alexa Fluor 555-conjugated phalloidin (Molecular Probes) for filamentous actin and anti-Tau-1 antibody for axons. Collapsed growth cones were scored in a double-blinded manner. The experiments were repeated at least 3 times, and >50 neurons were analyzed for each experiment. Data are presented as mean±SEM.
To screen for small molecule EphA4 inhibitors, the inventors performed a molecular docking analysis using a small molecule library. […] Their ability in inhibiting EphA4 inhibiting the EphA4-dependent growth cone collapse using cultured hippocampal neurons was performed.

APP/PS1 mice = experiment: Adult neurogenesis (Ki67 staining) in hippocampus of APP/PS1 mice; type: in vivo, mouse; settings: Rhy oral 50 mg/kg for over three months, versus control-treated mice
Description: The mouse brains were sectioned and stained with Ki67 antibody, which labelled all cells in the cell cycle, but not those differentiated progenitors and newly born neurons.

T1 sequence (D3ZZK3 20-986): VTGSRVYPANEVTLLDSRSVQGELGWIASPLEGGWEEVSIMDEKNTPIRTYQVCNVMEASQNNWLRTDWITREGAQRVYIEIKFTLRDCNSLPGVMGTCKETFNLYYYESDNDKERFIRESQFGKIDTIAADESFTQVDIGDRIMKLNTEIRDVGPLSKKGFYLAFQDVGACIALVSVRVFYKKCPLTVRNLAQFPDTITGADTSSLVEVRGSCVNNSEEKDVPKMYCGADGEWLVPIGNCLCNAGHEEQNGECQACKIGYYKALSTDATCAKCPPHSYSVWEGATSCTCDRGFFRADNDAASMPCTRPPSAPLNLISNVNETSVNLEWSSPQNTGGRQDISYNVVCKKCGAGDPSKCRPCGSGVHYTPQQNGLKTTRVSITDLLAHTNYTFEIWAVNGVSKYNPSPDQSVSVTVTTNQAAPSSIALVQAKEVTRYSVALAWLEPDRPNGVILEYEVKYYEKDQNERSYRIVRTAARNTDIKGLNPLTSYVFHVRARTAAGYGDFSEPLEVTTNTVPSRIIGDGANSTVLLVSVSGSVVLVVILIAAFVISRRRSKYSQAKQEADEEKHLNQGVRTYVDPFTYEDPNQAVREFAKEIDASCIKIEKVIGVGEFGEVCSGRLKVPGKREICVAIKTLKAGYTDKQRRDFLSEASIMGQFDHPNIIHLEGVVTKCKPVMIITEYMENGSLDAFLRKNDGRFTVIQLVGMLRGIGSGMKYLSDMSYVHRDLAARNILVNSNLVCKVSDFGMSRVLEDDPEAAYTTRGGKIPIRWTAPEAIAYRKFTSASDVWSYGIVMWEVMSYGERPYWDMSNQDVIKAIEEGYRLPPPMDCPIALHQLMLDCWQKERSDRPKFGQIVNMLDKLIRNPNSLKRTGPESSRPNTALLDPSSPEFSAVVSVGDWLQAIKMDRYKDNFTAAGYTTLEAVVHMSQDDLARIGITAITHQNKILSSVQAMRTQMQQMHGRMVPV
T2 sequence (P54764 20-547 limits assumed): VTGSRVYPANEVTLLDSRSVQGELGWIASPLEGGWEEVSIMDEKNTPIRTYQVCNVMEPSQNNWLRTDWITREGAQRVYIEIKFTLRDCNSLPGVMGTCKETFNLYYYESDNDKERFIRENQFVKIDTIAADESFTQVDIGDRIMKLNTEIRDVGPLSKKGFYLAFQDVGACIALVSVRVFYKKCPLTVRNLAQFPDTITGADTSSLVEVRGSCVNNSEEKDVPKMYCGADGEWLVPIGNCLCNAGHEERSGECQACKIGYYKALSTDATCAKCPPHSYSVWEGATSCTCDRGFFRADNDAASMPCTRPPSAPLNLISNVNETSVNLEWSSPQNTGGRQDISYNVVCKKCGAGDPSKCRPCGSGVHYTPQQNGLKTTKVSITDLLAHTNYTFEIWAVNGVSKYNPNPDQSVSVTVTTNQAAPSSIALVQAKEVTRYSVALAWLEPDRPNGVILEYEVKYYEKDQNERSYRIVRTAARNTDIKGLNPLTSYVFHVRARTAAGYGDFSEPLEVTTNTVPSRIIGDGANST

Structure (SMILES): CC[C@H]1CN2CC[C@]3(C(=O)Nc4ccccc43)[C@@H]2C[C@@H]1/C(=C\OC)C(=O)OC [Rhy, methyl (7β,16E,20α)-16-(methoxymethylene)-2-oxocorynoxan-17-oate]
- mean fEPSP slope, last 10 min after LTP induction ([1]; Rhy 30 μM + Aβ, Aβ alone 131.1±3.9%): 174.1±9.8%
- mean fEPSP slope, last 10 min after LTP induction ([1]; Rhy 30 μM alone, control 172.7±7.5%): 168.1±6.0%
- ephrin-A1-induced EphA4 tyrosine phosphorylation (EphA4): reduced the specific phosphorylation; also recorded: inhibited Eph-ephrin-A interaction and EphA4 tyrosine phosphorylation
- binding to the extracellular domain of EphA4 (pull-down, words) [2]: binds the extracellular domain of EphA4
- binding to the extracellular domain of EphB2 (pull-down, words) [3]: not that of EphB2
- ephrin-A1-stimulated growth cone collapse [4]: reduced; also recorded: inhibited ephrin-A1-stimulated growth cone collapse
- number of Ki-67+ neural progenitors in dentate gyrus (APP/PS1 mice): increased the number of Ki-67+ neural progenitors
